Consider two compounds from patent publication US20070155841A1, “Preventive agent for carcinogenesis of liver cancer containing quinone-based compound as active ingredient” (Eisai Co., Ltd., priority 2004, published 2007).

Structures are written as SMILES.

The subject of one data set is leukemia cells. Conditions: in vitro, Patent Literature 1; cited from earlier work.
The subject of data set [1] is liver cancer (hepatocellular carcinoma) in female virus cirrhosis patients. The data set can be described thus: Randomized clinical trial with 7-year follow-up: development of liver cancer in virus cirrhosis patients. The class given is in vivo, human. Conditions: for Adjusted odds ratio for development of HCC (treatment group to control group): multivariate analysis adjusted for age, ALT, albumin, total bilirubin, platelet count, AFP, history of IFN-α, 95% CI 0.016-0.992, P 0.0491; for Crude odds ratio for development of HCC (treatment group to control group): univariate analysis, 95% CI 0.042-0.913, P 0.038. The protocol: A primary test was conducted targeting 50 female virus cirrhosis patients.
The diagnosis of cirrhosis was based on histological examination of liver specimens obtained by laparoscopy or needle biopsy performed under ultrasonic guidance.
Half were randomly assigned to receive 45 mg/day of vitamin K2 (Glakay;
Eisai Co., Tokyo, Japan) p.o., and half were assigned to the control group. Randomization was performed by placing the treatment assignments in sealed envelopes.
At the end of the first study, 21 patients in the treatment group and 19 patients in the control group agreed to participate in a longer trial. These patients were infected with the hepatitis C virus except for one patient in each group that had hepatitis B.
The clinical trial was conducted in accordance with the Helsinki Declaration and was approved by our ethics committee.
Statistical analysis was carried out with SAS software (version 8.12). The χ2 test was used to assess the homogeneity of groups. Cumulative incidences were plotted by the Kaplan-Meier method, and statistical significance of differences was analyzed by the log-rank test. Cox's regression analysis was used for univariate and multivariate analysis. In both studies, the two groups were similar with respect to age, the Child-Pugh stage, and the other clinical findings (See Table 1).

Data set [2] deals with liver cancer which has been treated. To be noted: Non-Patent Literature 6 and 7, cited from earlier work.
The conditions of data set [3]: cited from earlier work.
In a further data set the test system is tumor cells. To be noted: Non-Patent Literature 5; cited from earlier work.

For `CC(C)=CCC/C(C)=C/CC/C(C)=C/CC/C(C)=C/CC1=C(C)C(=O)c2ccccc2C1=O` [menatetrenone, 2-methyl-3-tetraprenyl-1,4-naphthoquinone], the differentiation induction activity result in the data set on leukemia cells was “differentiation induction activity in leukemia cells”. Further, in data set [1] (listed as VK2), the “Adjusted odds ratio for development of HCC (treatment group to control group)” value is 0.126 and the “Crude odds ratio for development of HCC (treatment group to control group)” value is 0.195. Moreover, in data set [1] (listed as vitamin K2), the “Adjusted odds ratio for development of HCC (treatment group to control group)” value is given as 0.126 (0.016 to 0.992) and the “Crude odds ratio for development of HCC (treatment group to control group)” value was 0.195 (from 0.042 to 0.913). In addition, the “cumulative incidence percentage of liver cancer patients versus control group” value in data set [1] (treatment group, 45 mg/day p.o., 7-year follow-up, Kaplan-Meier (FIG. 1)) is reported as “much smaller than that in the control group”. In addition, the “patients who developed liver cancer” value in data set [1] (treatment group, 45 mg/day p.o., 7-year follow-up, control group 9 of 19) is 2 of 21. The “recurrence of treated liver cancer” value in data set [2] (patients who already had cancer) is listed as “suppresses recurrence of liver cancer”. The survival percentage entry in data set [2] (patients with treated liver cancer) was “heightens the survival percentage”. Besides, the solubility in water entry in data set [3] was “nearly insoluble in water”.
In the case of `CC(C)=CCC/C(C)=C/CC/C(C)=C/CC/C(C)=C/CO` [geranylgeraniol], the induction of apoptosis entry in the data set with tumor cells was “potent inducer of apoptosis in tumor cells”.
